The values that follow come from patent publication US20050176813A1, “Novel chalcone derivatives and uses thereof” (priority 2002, published 2005).

pEC50, pKd: −log10 of the molar value. Read-outs that look alike come from different tables or passages of the source.

As usually defined, the pKd is −log10 of the Kd, conventionally taken in molar units.

Data set [1] has as its target T1, Kv1.3 (Homo sapiens, UniProt P22001). The data set is described as follows: Kv1.3 channel block, estimated Kd (Table 1). It counts as binding.
The test system of the next data set is mice. The data set is described as follows: Toxicity on intravenous injection into mice. It counts as in vivo.
Another data set deals with MEL cells. The data set is described as follows: Flow cytometric measurement of cell viability (PI uptake), MEL cells. The class given is cell-based. The note with it: 48 h. As for the experimental part:
(§1) Flow Cytometric Measurement of Cell Viability
(§2) Jurkat E6-1 and MEL were seeded at 5×10^5 cells/ml in twelve-well plates. Drug (100 nM, 1 μM, 2.5 μM and 10 μM) was added in a final DMSO concentration of 0.1%. After 48 h of incubation, cells were harvested by sucking them off the plates. Cells were centrifuged, resuspended in 0.5 ml PBS containing 1 μg/ml propidium iodide (PI), and red fluorescence measured on a FACScan flow cytometer (Becton Dickinson) after 20 min (10^4 cells of every sample being analyzed). The percentage of dead cells was determined by their PI uptake. Incubation with 20% DMSO served as a control for setting the gates of the flow cytometer for dead cells.
(A flow cytometer gives signals particle by particle.)

Another data set concerns Jurkat E6-1. The data set is described as follows: Flow cytometric measurement of cell viability (PI uptake), Jurkat T-cells. It counts as cell-based. Particulars: 48 h. As for the experimental part:
as §1, §2

A further data set concerns the target Kv1.5 (Homo sapiens, UniProt P22460). The data set is described as follows: Kv1.5 channel block, estimated Kd (Table 1). It counts as binding.
Data set [2] is described as follows: Cytotoxicity in vitro (remark in Table 1, summary of Table 2). Particulars: for Cytotoxicity in-vitro (summary of Table 2): MEL and Jurkat cells; for Cytotoxicity (remark in Table 1): cells not given. The class given is cell-based. As for the experimental part: as §2
Data set [3] deals with human peripheral blood lymphocytes. Briefly: Proliferation test, [3H]-thymidine incorporation assay, anti-CD3 stimulated. It counts as cell-based. The note with it: for Antiproliferative potency compared with Example 1: FIG. 1; for pEC50: Homo sapiens, Lymphocyte, anti-CD3 stimulation, 48 h, read-out: EC50, suppression of proliferation of human peripheral blood lymphocytes. As for the experimental part: Proliferation Test [^3H]-Thymidine Incorporation Assay
Resting peripheral blood mononuclear cells from healthy volunteers were seeded at 2×10^5 cells per well in medium (RPMI 1640 supplemented 10% fetal calf serum, 2 mM glutamine, 1 mM sodium pyruvate, 1% nonessential amino acids, 100 units/ml penicillin, 100 μg/ml streptomycin and 50 μM β-mercaptoethanol) in flat-bottom 96 well plates (final volume 200 μl). Cells pre-incubated with drug (60 min), were stimulated with 5 ng/ml anti-CD3 Ab) for 48 h. [^3H]-Thymidine (1 μCi per well) was added for the last 6 h. Cells were harvested onto glass fibre filters and radioactivity measured in a scintillation counter. All experiments were done in triplicate. Results are reported as normalised for maximum [^3H]-thymidine incorporation for controls.

The target in data set [4] is T1, Kv1.3. The note with it: cited from earlier work.
The next data set deals with Kv1.1 (Homo sapiens, UniProt Q09470). The data set is described as follows: Kv1.1 channel block, estimated Kd (Table 1). It counts as binding.
Kv1.1, sequence (Q09470 whole entry): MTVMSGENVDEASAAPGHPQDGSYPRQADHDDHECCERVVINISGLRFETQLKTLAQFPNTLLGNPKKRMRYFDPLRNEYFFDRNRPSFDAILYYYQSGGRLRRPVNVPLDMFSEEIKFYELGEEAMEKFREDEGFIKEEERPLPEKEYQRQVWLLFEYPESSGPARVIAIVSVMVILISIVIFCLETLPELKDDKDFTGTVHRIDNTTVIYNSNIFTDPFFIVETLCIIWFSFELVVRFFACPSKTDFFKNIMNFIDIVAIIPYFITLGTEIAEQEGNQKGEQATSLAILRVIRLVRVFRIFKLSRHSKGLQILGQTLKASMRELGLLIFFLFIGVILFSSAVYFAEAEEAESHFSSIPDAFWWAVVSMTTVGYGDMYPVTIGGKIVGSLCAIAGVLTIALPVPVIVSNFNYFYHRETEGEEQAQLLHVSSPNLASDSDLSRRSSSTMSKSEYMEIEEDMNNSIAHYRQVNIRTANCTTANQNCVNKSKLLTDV
The next data set has as its target IK (Homo sapiens, UniProt O15554). The data set is described as follows: IK channel inhibition (Table 1). It counts as binding. Particulars: at 20 μM.
In another data set the target is Kv1.7 (Homo sapiens, UniProt Q96RP8). Briefly: Kv1.7 channel block, estimated Kd (Table 1). The class given is binding.
Kv1.7, sequence (Q96RP8 whole entry): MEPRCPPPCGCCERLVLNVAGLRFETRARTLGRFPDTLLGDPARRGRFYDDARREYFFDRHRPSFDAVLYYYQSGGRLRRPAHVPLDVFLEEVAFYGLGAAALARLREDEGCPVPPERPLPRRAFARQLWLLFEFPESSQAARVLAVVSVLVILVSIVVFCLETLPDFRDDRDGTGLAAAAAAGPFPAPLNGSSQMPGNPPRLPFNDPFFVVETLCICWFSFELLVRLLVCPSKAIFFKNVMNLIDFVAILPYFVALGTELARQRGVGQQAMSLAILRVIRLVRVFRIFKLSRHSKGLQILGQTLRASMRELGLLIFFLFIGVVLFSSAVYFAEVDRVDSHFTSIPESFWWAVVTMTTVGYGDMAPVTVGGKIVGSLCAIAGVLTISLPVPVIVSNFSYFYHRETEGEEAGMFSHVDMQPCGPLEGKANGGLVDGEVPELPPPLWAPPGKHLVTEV
Setting [5] is: Kv1.3, area, read-out: Est. Kd, Kd area.
[6] abbreviates: Kv1.3, end, read-out: Est. Kd, Kd end.
Where [7] appears, read: Kv1.3, peak, read-out: Est. Kd, Kd peak.
Where [8] appears, read: injected intravenously, dose not stated.
The mark [9] stands for this setting: Kv1.5, end, read-out: Est. Kd, Kd end.
Setting [10] is: Kv1.5, peak, read-out: Est. Kd, Kd peak.
Where [11] appears, read: Kv1.1, area, read-out: Est. Kd, Kd area.
Setting [12] is: Kv1.1, end, read-out: Est. Kd, Kd end.
Setting [13] is: Kv1.1, peak, read-out: Est. Kd, Kd peak.

Kv1.5, sequence (P22460 whole entry): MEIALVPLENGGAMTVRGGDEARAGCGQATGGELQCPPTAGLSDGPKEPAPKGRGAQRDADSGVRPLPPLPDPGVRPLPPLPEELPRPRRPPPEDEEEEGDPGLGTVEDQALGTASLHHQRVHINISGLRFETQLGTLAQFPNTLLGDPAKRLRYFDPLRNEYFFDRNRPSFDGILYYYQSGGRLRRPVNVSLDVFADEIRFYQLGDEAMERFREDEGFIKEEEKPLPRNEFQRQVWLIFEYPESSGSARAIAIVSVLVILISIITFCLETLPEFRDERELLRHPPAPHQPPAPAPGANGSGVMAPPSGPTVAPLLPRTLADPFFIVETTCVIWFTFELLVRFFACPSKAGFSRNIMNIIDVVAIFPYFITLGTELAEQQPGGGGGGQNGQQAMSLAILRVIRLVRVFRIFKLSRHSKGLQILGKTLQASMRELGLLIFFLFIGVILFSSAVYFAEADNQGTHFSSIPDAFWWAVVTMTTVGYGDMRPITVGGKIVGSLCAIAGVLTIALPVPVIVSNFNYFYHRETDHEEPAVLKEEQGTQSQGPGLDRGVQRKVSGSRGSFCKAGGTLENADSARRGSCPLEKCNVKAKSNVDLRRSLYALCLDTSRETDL
T1 sequence (P22001 whole entry): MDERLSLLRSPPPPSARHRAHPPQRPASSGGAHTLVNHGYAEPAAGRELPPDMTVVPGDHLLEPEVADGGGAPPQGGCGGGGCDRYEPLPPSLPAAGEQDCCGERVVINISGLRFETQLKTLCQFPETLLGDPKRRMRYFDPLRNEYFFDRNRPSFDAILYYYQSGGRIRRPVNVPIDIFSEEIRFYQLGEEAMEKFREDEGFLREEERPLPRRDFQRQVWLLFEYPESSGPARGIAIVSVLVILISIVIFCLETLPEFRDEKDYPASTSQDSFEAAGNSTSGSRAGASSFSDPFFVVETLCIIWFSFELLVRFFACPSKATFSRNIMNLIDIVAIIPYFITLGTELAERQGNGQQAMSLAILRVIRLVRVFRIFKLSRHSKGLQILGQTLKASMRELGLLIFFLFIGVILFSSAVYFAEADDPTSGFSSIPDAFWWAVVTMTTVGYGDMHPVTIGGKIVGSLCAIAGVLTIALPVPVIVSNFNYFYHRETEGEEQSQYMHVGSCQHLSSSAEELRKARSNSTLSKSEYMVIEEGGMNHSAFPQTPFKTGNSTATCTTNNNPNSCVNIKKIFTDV

For `COc1cccc(/C=C/C(=O)c2c(O)c(OC)c3occc3c2OC)c1` (single isomer, unassigned) [Example 24], the negative-log Kd (pKd) is 6.10 at Kv1.3 [1] (setting [5]); 6.52 to 6.60 on Kv1.3 [1] (setting [6]); 5.96 to 6.05 on Kv1.3 [1] (setting [7]); 5.22 on Kv1.5 (setting [9]); 4.44 on Kv1.5 (setting [10]). In the data set on mice (setting [8]), the Toxicity in mice entry is given as “non-toxic”. Besides, the “percentage of dead cells (PI uptake)” value with MEL cells (100 nM) was 3.53%; with MEL cells (1 μM), 3.73%; in the data set with MEL cells (2.5 μM) it was 5.26%; in the data set on MEL cells (10 μM), 3.00%; in the data set on Jurkat E6-1 (100 nM), 2.41%; in the data set with Jurkat E6-1 (1 μM) it was 2.81%. The results for the “percentage of dead cells (PI uptake)” value in the data set on Jurkat E6-1 (2.5 μM) and in the data set with Jurkat E6-1 (10 μM) were 2.31% and 9.8%, respectively. Also, the “Cytotoxicity in-vitro (summary of Table 2)” value (shortened to “Cytotoxicity in-vitro”) in data set [2] is “non-cytotoxic”. The “Antiproliferative potency compared with Example 1” value in data set [3] was “even more potently antiproliferative”. In addition, the pEC50 in data set [3] was 6.00.

Turning to `COc1c2occc2cc2ccc(=O)oc12` [8-Methoxypsoralen], at Kv1.3 [4] (background), the “Blocking activity on the Kv1.3 channel” value is “blocking activity”.

As to `COc1c(C(=O)/C=C/c2ccccc2)c(O)c(OC)c2occc12` [Example 1], the pKd was 6.92 at Kv1.3 [1] (setting [6]); 6.12 on Kv1.3 [1] (setting [7]); 6.40 at Kv1.3 [1] (T-lymphocytes, read-out: Kd (dissociation constant), block of Kv1.3 voltage gated potassium channel in T-lymphocytes); 5.92 on Kv1.1 (setting [11]); 6.15 on Kv1.1 (setting [12]); 4.92 on Kv1.1 (setting [13]). Moreover, the negative logarithm of the Kd (pKd) at Kv1.7 (Kv1.7, end, read-out: Est. Kd, Kd end) was 5.30; on Kv1.7 (Kv1.7, peak, read-out: Est. Kd, Kd peak), 4.60. The Toxicity in mice result with mice (30 uM injected intravenously) is “non-toxic”. The “percentage of dead cells (PI uptake)” value was found to be 4.95% in the data set on MEL cells (100 nM); 6.21% in the data set with MEL cells (1 μM); 6.70% in the data set with MEL cells (2.5 μM); 5.88% in the data set on MEL cells (10 μM); 3.02% in the data set with Jurkat E6-1 (100 nM); 1.47% in the data set on Jurkat E6-1 (1 μM). The entries for the “percentage of dead cells (PI uptake)” value in the data set on Jurkat E6-1 (2.5 μM) and with Jurkat E6-1 (10 μM) were 1.78% and 8.10%, respectively. The “Selectivity over Kv1.5” value on Kv1.5 (Kv1.3 over Kv1.5) was “Cinnamon needles. Selectivity over Kv1.5 is 25-fold. Mp 125-126”. The “Cytotoxicity in-vitro” value in [2] is “non-cytotoxic”. In addition, on IK, the IK inhibition entry is reported as “no inhibition”. On Kv1.7 (Kv1.7), the “Block phasic or not” value was “phasic”. Moreover, in data set [3], the pEC50 is 6.00.

For `COc1c(C(=O)/C=C/c2cccc(O)c2)c(O)c(OC)c2occc12` [Example 18], the negative-log Kd (pKd) at Kv1.3 [1] (setting [5]) is 6.15; at Kv1.3 [1] (setting [6]), 6.60; on Kv1.3 [1] (setting [7]), 5.30; at Kv1.5 (setting [9]), 5.00; at Kv1.5 (setting [10]), 4.80; on Kv1.1 (setting [11]), 5.77. The pKd was 6.00 at Kv1.1 (setting [12]); 4.82 on Kv1.1 (setting [13]); 4.30 on Kv1.7 (Kv1.7, time-independent, read-out: Est. Kd). Besides, the Toxicity in mice entry in the data set with mice (setting [8]) is “non-toxic”. For the same molecule, the “percentage of dead cells (PI uptake)” value in the data set on MEL cells (100 nM) turned out to be 6.89%; in the data set on MEL cells (1 μM) it was 3.60%; with MEL cells (2.5 μM) it was 6.98%; in the data set with MEL cells (10 μM) it was 4.41%; with Jurkat E6-1 (100 nM), 2.57%; in the data set with Jurkat E6-1 (1 μM), 2.22%. Moreover, the “percentage of dead cells (PI uptake)” value is 2.59% in the data set with Jurkat E6-1 (2.5 μM) and 4.70% in the data set on Jurkat E6-1 (10 μM). The “Cytotoxicity in-vitro” value in data set [2] is recorded as “non-cytotoxic”. Besides, the “Antiproliferative potency compared with Example 1” value in [3] is “even more potently antiproliferative”. Besides, the pEC50 in data set [3] is 6.30.

As for `COc1c(C(=O)/C=C/c2ccc(C)cc2)c(O)c(OC)c2occc12` [Example 23], the negative-log Kd (pKd) on Kv1.3 [1] (setting [6]) is 7.00; on Kv1.3 [1] (setting [7]) it was 5.82. Also, the pEC50 in [3] is 5.82.

`COc1c(C(=O)/C=C/c2cccs2)c(O)c(OC)c2occc12` [Example 53]: the results for the pKd at Kv1.3 [1] (setting [6]) and at Kv1.3 [1] (setting [7]) were 6.52 and 5.76, respectively. In addition, the “Cytotoxicity (remark in Table 1)” value in data set [2] is reported as “Cytotoxic Mp 129 Red needles”.

`COc1c(C(=O)/C=C/c2cc(Br)cs2)c(O)c(OC)c2occc12` [Example 54]: the negative-log Kd (pKd) is 6.60 at Kv1.3 [1] (setting [6]) and 5.40 on Kv1.3 [1] (setting [7]). The “Cytotoxicity (remark in Table 1)” value in data set [2] is reported as “Cytotoxic Mp 139 Brown needles”.

Turning to `COc1c(C(=O)/C=C/c2ccc(C)s2)c(O)c(OC)c2occc12` [Example 55], the pKd is 6.30 on Kv1.3 [1] (setting [6]) and 5.52 at Kv1.3 [1] (setting [7]). For the same molecule, the “Cytotoxicity (remark in Table 1)” value in data set [2] is “Cytotoxic Mp 103 Orange prisms”.

As to `COc1c(C(C)=O)c(O)c(OC)c2occc12` [khellinone], the “Blocking activity on the Kv1.3 channel” value at Kv1.3 [4] is reported as “blocking activity”.
